The target in one assay is T1, CDK1:Cyclin-B (Homo sapiens, UniProt P06493).
T1 construct: purchased New England Biolabs 6020; host or cells: insect cells
The experiment in a line: CDK1 Screening Assay. It counts as biochemical. Here is the method: A kinase reaction mixture was prepared containing 50 mM Tris-HCl pH=8, 10 mM MgCl2, 0.1 mM Na3PO4, 1 mM DTT, 10 μM ATP, 0.025 μM biotinylated histone-H1 peptide substrate (also referred to herein as a CDK-1 peptide substrate, see substrate table) and 0.2 μCuries per well ^33P-γ-ATP (2000–3000 Ci/mmol). 70 μL of the kinase reaction mixture was dispensed into the well of a streptavidin coated FlashPlate™ (Cat. # SMP 103, NEN, Boston, Mass.). Then 1 μL of test compound stock in 100% DMSO was added to the wells resulting in a final concentration of 1% DMSO in the reaction with a 100 μl final reaction volume. Next, CDK1:Cyclin-B protein (New England Biolads, infra) was diluted in 50 mM Tris-HCl pH=8.0, 0.1% BSA at a concentration of 1 ng per μL and 30 μl (30 ng enzyme per test well) was added to each well to initiate the reaction. The reaction was incubated for one hour at 30° C. At the end of the 1-hour incubation, the reaction was terminated by aspirating the reaction mixture from the plate and washing the wells twice with PBS containing 100 mM EDTA. The histone-H1 biotinylated peptide substrate became immobilized on the Flashplate™ (Perkin Elmer, NEN Boston, Mass.) and the incorporation of ^33P-γ-ATP was measured by reading the plate on a scintillation counter. Inhibition of the enzymatic activity of CDK1 was measured by observing a reduced amount of ^33P-γ-ATP incorporated into the immobilized peptide.
Assays to test compound inhibition of other kinases were preformed using methods that measure the amount of phosphorylation of a biotinylated peptide substrate. Biotinylated peptide substrates were selected from the literature as appropriate for the enzyme being evaluated. The general procedure used to assay for kinase activity is as follows: a kinase reaction mix was prepared in 50 mM Tris-HCl pH=8, 10 mM MgCl2, 0.1 mM Na3VO4, 1 mM DTT, 10 μM ATP, 0.25–1 μM biotinylated peptide substrate, 0.2–0.8 μCuries per well ^33P-γ-ATP (2000–3000 Ci/mmol). Assay conditions vary slightly for each protein kinase, for example, insulin receptor kinase requires 10 mM MnCl2 for activity and Calmodulin-dependent protein kinase requires calmodulin and 2 mM CaCl2. The reaction mixture was dispensed into the wells of a streptavidin coated Flashplate and 1 μL test compound in 100% DMSO was added to a 100 μL reaction volume resulting in a final concentration of 1% DMSO in the reaction. Enzyme was diluted in 50 mM Tris-HCl pH=8.0, 0.1% BSA and added to each well. The reaction was incubated for one hour at 30° C. in the presence of a test compound. After one hour the reaction mix was aspirated from the plate and the plate was washed with PBS containing 100 mM EDTA. The plate was read on a scintillation counter to determine ^33P-γ-ATP incorporated into the immobilized peptide substrate. Test compounds were assayed in duplicate at 8 concentrations (100 μM, 10 μM, 1 μM, 100 nM, 10 nM, 1 nM, 100 pM, 10 pM). A maximum and minimum signal for the assay was determined on each plate. […] Known inhibitor compounds appropriate for the kinase being assayed were also included on each plate.
The form of VEGF-R (vascular endothelial growth factor receptor-2) used was a fusion protein containing a polyhistidine tag at the N-terminus followed by amino acids 786–1343 of the rat VEGF-R2 kinase domain (GenBank Accession #U93306). The form of CDK1 (cyclin dependent kinase 1) used was isolated from insect cells expressing both the human CDK1 catalytic subunit and its positive regulatory subunit cyclin B (CDK1:cyclin B protein, New England Biolabs, Beverly, Mass., Cat. #6020). The form of CDK4 (cyclin dependent kinase 4) used contains amino acids 769 to 921 of the mouse […] protein found in the GST-retinoblastoma protein construct (Santa Cruz Biotechnology, Santa Cruz, Calif.; Cat. #SC-4112). The form of EGF-R1 (epidermal growth factor receptor 1) used was purified from human A431 cell membranes (Sigma, St. Louis, Mo., Cat.# E3641). […]

For assay [1], the system named is HeLa cervical adenocarcinoma. Kind of assay: Inhibition of cell proliferation, 14C-thymidine incorporation, HeLa. It is filed as cell-based. Particulars: Homo sapiens. Here is the method: The ability of a test compound to inhibit the proliferation of cell growth was determined by measuring incorporation of ^14C-labelled thymidine into newly synthesized DNA within the cells. This method was used on cell lines derived from carcinomas originating from several tissues such as HeLa cervical adenocarcinoma (American Type Culture Collection (ATCC), Virginia, Cat. #CCL-2), HCT-116 colon carcinoma (CCL-247), MDA-MB-231 (Xenogen Corp.), PC-3 prostate adenocarcinoma (ATCC CRL-1435) and A375 malignant melanoma (ATCC CRL-1619).
Using this method, the effect of a compound on cell growth of cells with many different phenotypes can be determined. Cells were trypsinized and counted and 3000–8000 cells were added to each well of a 96-well CytoStar tissue culture treated scintillating microplate (Amersham #RPNQ0160) in complete medium in a volume of 100 μl. Cells were incubated for 24 hours in complete medium at 37° C. in an atmosphere containing 5% CO2. 1 μL of test compound in 100% DMSO was then added to the wells of the plate. DMSO only was added to control wells. Cells were incubated for 24 more hours in complete medium at 37° C. in an atmosphere containing 5% CO2. […] The degree of methyl ^14C-thymidine incorporation was quantified on a Packard Top Count.

One may read the IC50 as the concentration that gives 50% inhibition. Read a high IC50 as a need for much substance.

T1 sequence (P06493 whole entry): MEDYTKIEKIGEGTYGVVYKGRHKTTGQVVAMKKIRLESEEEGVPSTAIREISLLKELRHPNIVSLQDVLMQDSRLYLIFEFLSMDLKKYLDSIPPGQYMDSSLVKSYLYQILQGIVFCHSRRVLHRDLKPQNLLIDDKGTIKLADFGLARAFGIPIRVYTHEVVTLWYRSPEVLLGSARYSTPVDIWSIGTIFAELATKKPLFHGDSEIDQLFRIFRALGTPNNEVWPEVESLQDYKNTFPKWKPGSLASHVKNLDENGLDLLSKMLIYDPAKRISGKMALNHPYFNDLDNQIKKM
T1 sequence (P14635 whole entry partner): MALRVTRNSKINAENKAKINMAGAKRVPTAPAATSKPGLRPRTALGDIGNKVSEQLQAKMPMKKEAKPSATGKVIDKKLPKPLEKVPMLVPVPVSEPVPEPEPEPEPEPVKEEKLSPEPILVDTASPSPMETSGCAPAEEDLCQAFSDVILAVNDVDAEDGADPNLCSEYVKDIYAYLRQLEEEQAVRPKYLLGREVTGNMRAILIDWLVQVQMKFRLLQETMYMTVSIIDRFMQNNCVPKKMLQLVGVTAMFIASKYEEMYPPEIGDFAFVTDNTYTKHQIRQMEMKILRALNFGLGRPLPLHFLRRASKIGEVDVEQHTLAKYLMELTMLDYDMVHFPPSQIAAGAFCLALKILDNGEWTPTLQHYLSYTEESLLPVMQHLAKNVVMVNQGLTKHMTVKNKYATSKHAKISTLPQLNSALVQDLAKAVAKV

As for `OCCCNc1cncc(-c2ncnc(Nc3cccc(Cl)c3)n2)c1` [Compound 1, 3-((5-(4-((3-chlorophenyl)amino)-1,3,5-triazin-2-yl)-3-pyridinyl)amino)-1-propanol], the IC50 is 0.039 µM against CDK1:Cyclin-B and 0.298 µM in assay [1].

Turning to `OCCCNc1cc(-c2ncnc(Nc3cccc(Cl)c3)n2)ccn1` [Compound 2, 3-((4-(4-((3-chlorophenyl)amino)-1,3,5-triazin-2-yl)-2-pyridinyl)amino)-1-propanol], the IC50 came to 0.016 µM at CDK1:Cyclin-B and 0.105 µM in assay [1].

The record behind these values is patent US7205298B2, “Substituted triazine kinase inhibitors” (Janssen Pharmaceutica N.V., priority 2002, dated 2007).
